Assay results from the NIST ThermoML archive (doi:10.1016/j.jct.2013.11.020).
± gives the expanded uncertainty stated by the source.

Assays:
[1] = 298.15 K; 101.33 kPa; Liquid; Vibrating tube method
[2] = refractive index (Na D-line) (dimensionless); details: 298.15 K; 101.33 kPa; Liquid; Standard Abbe refractometry

Row | SMILES | mass density [1] | refractive index [2]
1 | Cc1ccccc1 [toluene] | 862.17 ± 0.13 kg/m3 | 1.49399 ± 0.00031
2 | CCCC[n+]1ccn(C)c1.O=S(=O)([N-]S(=O)(=O)C(F)(F)F)C(F)(F)F | 1436.35 ± 0.61 kg/m3 | 1.42706 ± 0.00037
3 | CCCn1cc[n+](C)c1.O=S(=O)([N-]S(=O)(=O)C(F)(F)F)C(F)(F)F | 1474.44 ± 0.65 kg/m3 | 1.42526 ± 0.00037
4 | CCCCn1cc[n+](C)c1.COS(=O)(=O)[O-] [1-butyl-3-methylimidazolium methyl sulfate] | 1212.59 ± 0.41 kg/m3 | 1.47792 ± 0.00037

Other lines, results leading:

Row | mass density [1] | refractive index [2] | SMILES
5 | 655.19 ± 0.2 kg/m3 | 1.37234 ± 0.00033 | CCCCCC [hexane]
6 | 862.51 ± 0.13 kg/m3 | 1.49304 ± 0.00031 | CCc1ccccc1 [ethylbenzene]
7 | 805.69 ± 0.24 kg/m3 | 1.44378 ± 0.00037 | C1=CCCCC1 [cyclohexene]
